Values of other authors in patent US20110213558A1, “METHOD FOR PREDICTING ACTIVATION ENERGY USING AN ATOMIC FINGERPRINT DESCRIPTOR OR AN ATOMIC DESCRIPTOR” (Bioinformatics & Molecular Design Research Center, priority 2008, published 2011).
Read-outs that look alike come from different tables or passages of the source.

Experiments:
cytochrome P450 [1] = settings: in vitro
cytochrome P450 [2] = settings: in vitro; remark: listed apart in the source

| Experimental metabolic rate (cytochrome P450 [1]; atom # 1) | Experimental metabolic rate (cytochrome P450 [1]; atom # 2) | Experimental metabolic rate (cytochrome P450 [1]; atom # 3) | Compound | Experimental metabolic rate (cytochrome P450 [2]; atom # 2) | Experimental metabolic rate (cytochrome P450 [2]; atom # 3) | Experimental metabolic rate (cytochrome P450 [2]; atom # 4) |
| --- | --- | --- | --- | --- | --- | --- |
| 16.0 | 84.0 |  | Cc1ccc(CCl)cc1 [1-chloromethyl-4-methyl-benzene] |  |  |  |
|  |  |  | Clc1ccccc1 [Chlorobenzene] | 17-19 | 5-9 | 71-79 |
| 4.5 | 49 | 46.5 | CCCCCC [Hexane] |  |  |  |
|  |  |  | COc1ccccc1 [Methoxybenzene] | 15-24 | 1-3 | 62-75 |
| 2.5 | 97.5 |  | CCCCCCCC [Octane] |  |  |  |
| 0.2 | 99.8 |  | CCc1ccccc1 [Ethylbenzene] |  |  |  |
